Laboratory results from EP0908457B1, “3-(1,2-benzisothiazol- and isoxazol-5-Y1)-2,4(1H,3H)-pyrimidinedione or thione and 3-(1,2-benzisothiazol- and isoxazol-5-y1)-4(3H)-pyrimidinone or thione herbicidal agents” (BASF AKTIENGESELLSCHAFT, priority 1997, dated 1999).

What was measured:
Format in all cases: in vivo
[1] = test system: Cyperus iria; assay: Preemergence weed control under flooded paddy conditions, CYPIR (Rice Flatsedge); conditions: flooded paddy; for CYPIR: preemergence weeds, herbicidal effect rating 0-9, three to four weeks after treatment; for herbicidal effect rating, CYPIR / CYPIR herbicidal effect rating: preemergence; for herbicidal effect rating, CYPIR: meaning of each grade not given here
[2] = test system: Echinochloa oryzoides (Ard.) Fritsch.; assay: Preemergence weed control under flooded paddy conditions, ECHORC (Watergrass (Calif.)); conditions: flooded paddy; for ECHORC: preemergence weeds, herbicidal effect rating 0-9, three to four weeks after treatment; for herbicidal effect rating, ECHORC / ECHORC herbicidal effect rating: preemergence; for herbicidal effect rating, ECHORC: meaning of each grade not given here
[3] = test system: Monochoria vaginalis, Presl.; assay: Preemergence weed control under flooded paddy conditions, MOOVA (Monochoria); conditions: flooded paddy; for MOOVA: preemergence weeds, herbicidal effect rating 0-9, three to four weeks after treatment; for herbicidal effect rating, MOOVA / MOOVA herbicidal effect rating: preemergence; for herbicidal effect rating, MOOVA: meaning of each grade not given here
[4] = test system: Sagittaria pygmaea, L.; assay: Preemergence weed control under flooded paddy conditions, SAGPY (Arrowhead (Pygmaea)); conditions: flooded paddy; for SAGPY: preemergence weeds, herbicidal effect rating 0-9, three to four weeks after treatment; for herbicidal effect rating, SAGPY / SAGPY herbicidal effect rating: preemergence; for herbicidal effect rating, SAGPY: meaning of each grade not given here
[5] = test system: Cyperus serotinus, Rottb.; assay: Preemergence weed control under flooded paddy conditions, CYPSE (Flatsedge); conditions: for CYPSE: preemergence weeds, herbicidal effect rating 0-9, three to four weeks after treatment; for herbicidal effect rating, CYPSE / CYPSE herbicidal effect rating: preemergence; for herbicidal effect rating, CYPSE: meaning of each grade not given here
[6] = Rate 0.0320 kg/ha, rated three to four weeks after treatment
[7] = Rate 0.0620 kg/ha, rated three to four weeks after treatment
[8] = Rate 0.1250 kg/ha, rated three to four weeks after treatment
[9] = Rate 0.2500 kg/ha, rated three to four weeks after treatment
[10] = Rate 0.0313 kg/ha, rated three to four weeks after treatment
[11] = Rate 0.0625 kg/ha, rated three to four weeks after treatment
[12] = Rate 0.0320 kg/ha, rated 3-4 weeks after treatment
[13] = Rate 0.0620 kg/ha, rated 3-4 weeks after treatment
[14] = Rate 0.1250 kg/ha, rated 3-4 weeks after treatment
[15] = Rate 0.2500 kg/ha, rated 3-4 weeks after treatment

Cn1c(C(F)(F)F)cc(=O)n(-c2ccc3snc(COC(=O)Cc4cccs4)c3c2)c1=O [Example 451, 2,4(1H,3H)-Pyrimidinedione, 3-[3-(hydroxymethyl)-1,2-benzisothiazol-5-yl]-1-methyl-6-(trifluoromethyl)-, 2-thienylacetate (ester)]
5.0: CYPIR ([1]; 0.0320 kg/ha) | CYPIR ([1]; 0.0620 kg/ha) | SAGPY ([4]; 0.0620 kg/ha)
9.0: CYPIR ([1]; 0.2500 kg/ha) | MOOVA ([3]; 0.0320 kg/ha) | MOOVA ([3]; 0.0620 kg/ha) | MOOVA ([3]; 0.1250 kg/ha) | MOOVA ([3]; 0.2500 kg/ha) | SAGPY ([4]; 0.2500 kg/ha)
0.0: ECHORC ([2]; 0.0320 kg/ha) | ECHORC ([2]; 0.0620 kg/ha) | CYPSE ([5]; 0.0620 kg/ha) | CYPSE ([5]; 0.2500 kg/ha)
6.0: ECHORC ([2]; 0.1250 kg/ha) | SAGPY ([4]; 0.1250 kg/ha)
7.0: CYPIR ([1]; 0.1250 kg/ha) | ECHORC ([2]; 0.2500 kg/ha)
4.0: SAGPY ([4]; 0.0320 kg/ha)

Cn1c(C(F)(F)F)cc(=O)n(-c2ccc3snc(C(=O)NOCc4ccccc4)c3c2)c1=O [Example 400, 1,2-Benzisothiazole-3-carboxamide, N-(benzyloxy)-5-[3,6-dihydro-3-methyl-2,6-dioxo-4-(trifluoromethyl)-1(2H)-pyrimidinyl]-]
7.0: herbicidal effect rating, MOOVA [3, 7] | herbicidal effect rating, MOOVA [3, 8]
6.0: herbicidal effect rating, MOOVA [3, 6]
9.0: herbicidal effect rating, CYPIR [1, 8] | herbicidal effect rating, CYPIR [1, 9] | herbicidal effect rating, MOOVA [3, 9]
3.0: herbicidal effect rating, CYPIR [1, 6] | herbicidal effect rating, CYPIR [1, 7]
0.0: herbicidal effect rating, ECHORC [2, 6] | herbicidal effect rating, ECHORC [2, 7] | herbicidal effect rating, ECHORC [2, 8] | herbicidal effect rating, ECHORC [2, 9] | herbicidal effect rating, SAGPY [4, 6] | herbicidal effect rating, SAGPY [4, 7] | herbicidal effect rating, SAGPY [4, 8] | herbicidal effect rating, SAGPY [4, 9] | herbicidal effect rating, CYPSE [5, 6] | herbicidal effect rating, CYPSE [5, 7] | herbicidal effect rating, CYPSE [5, 8] | herbicidal effect rating, CYPSE [5, 9]

Cn1c(C(F)(F)F)cc(=O)n(-c2ccc3snc(C(=O)c4ccccc4)c3c2)c1=O [Example 449, 2,4(1,3H)-Pyrimidinedione, 3-(3-benzoyl-1,2-benzisothiazol-5-yl)-1-methyl-6-(trifluoromethyl)-]
6.0: SAGPY ([4]; 0.2500 kg/ha)
4.0: CYPIR ([1]; 0.0320 kg/ha) | SAGPY ([4]; 0.0620 kg/ha) | SAGPY ([4]; 0.1250 kg/ha) | CYPSE ([5]; 0.2500 kg/ha)
7.0: ECHORC ([2]; 0.0620 kg/ha) | MOOVA ([3]; 0.0320 kg/ha) | MOOVA ([3]; 0.0620 kg/ha)
9.0: CYPIR ([1]; 0.2500 kg/ha) | ECHORC ([2]; 0.1250 kg/ha) | ECHORC ([2]; 0.2500 kg/ha) | MOOVA ([3]; 0.1250 kg/ha) | MOOVA ([3]; 0.2500 kg/ha)
5.0: CYPIR ([1]; 0.0620 kg/ha) | ECHORC ([2]; 0.0320 kg/ha)
8.0: CYPIR ([1]; 0.1250 kg/ha)
2.0: SAGPY ([4]; 0.0320 kg/ha) | CYPSE ([5]; 0.0320 kg/ha)

CC(OCc1nsc2ccc(-n3c(=O)cc(C(F)(F)F)n(C)c3=O)cc12)C(F)(F)F (stereo not drawn) [Example 208]
9.0: CYPIR herbicidal effect rating [1, 10] | CYPIR herbicidal effect rating [1, 11] | CYPIR herbicidal effect rating [1, 8] | CYPIR herbicidal effect rating [1, 9]
0.0: ECHORC herbicidal effect rating [2, 10] | ECHORC herbicidal effect rating [2, 11] | ECHORC herbicidal effect rating [2, 8] | ECHORC herbicidal effect rating [2, 9] | MOOVA herbicidal effect rating [3, 10] | SAGPY herbicidal effect rating [4, 10] | SAGPY herbicidal effect rating [4, 11] | SAGPY herbicidal effect rating [4, 8] | SAGPY herbicidal effect rating [4, 9] | CYPSE herbicidal effect rating [5, 10] | CYPSE herbicidal effect rating [5, 11] | CYPSE herbicidal effect rating [5, 8] | CYPSE herbicidal effect rating [5, 9]
2.0: MOOVA herbicidal effect rating [3, 11] | MOOVA herbicidal effect rating [3, 8]
4.0: MOOVA herbicidal effect rating [3, 9]

Cn1c(C(F)(F)F)cc(=O)n(-c2ccc3snc(C(C#N)=CC4CCCC4)c3c2)c1=O [Example 607, 1,2-Benzisothiazole-3-acetonitrile, alpha(cyclopentylmethylene)-5-[3,6-dihydro-3-methyl-2,6-dioxo-4-(trifluoromethyl)-1(2H)-pyrimidinyl]-, (E)- and (Z)-]
0.0: herbicidal effect rating, CYPIR [1, 6] | herbicidal effect rating, SAGPY [4, 6] | herbicidal effect rating, SAGPY [4, 7] | herbicidal effect rating, SAGPY [4, 8] | herbicidal effect rating, CYPSE [5, 7] | herbicidal effect rating, CYPSE [5, 8] | herbicidal effect rating, CYPSE [5, 9]
6.0: herbicidal effect rating, MOOVA [3, 6]
7.0: herbicidal effect rating, ECHORC [2, 7] | herbicidal effect rating, MOOVA [3, 7]
4.0: herbicidal effect rating, ECHORC [2, 6]
3.0: herbicidal effect rating, SAGPY [4, 9]
9.0: herbicidal effect rating, ECHORC [2, 8] | herbicidal effect rating, ECHORC [2, 9] | herbicidal effect rating, MOOVA [3, 8] | herbicidal effect rating, MOOVA [3, 9]
5.0: herbicidal effect rating, CYPIR [1, 8] | herbicidal effect rating, CYPIR [1, 9]
2.0: herbicidal effect rating, CYPIR [1, 7]

Cn1c(C(F)(F)F)cc(=O)n(-c2ccc3snc(C(Cc4ccccc4)S(C)(=O)=O)c3c2)c1=O (stereo not drawn) [Example 604, 2,4(1H,3H)-Pyrimidinedione, 1-methyl-3-{3-[alpha(methylsulfonyl)phenethyl]-1,2-benzisothiazol-5-yl}-6-(trifluoromethyl)-]
5.0: herbicidal effect rating, MOOVA [3, 6]
4.0: herbicidal effect rating, CYPIR [1, 8]
3.0: herbicidal effect rating, CYPIR [1, 7]
6.0: herbicidal effect rating, CYPIR [1, 9] | herbicidal effect rating, MOOVA [3, 7]
9.0: herbicidal effect rating, ECHORC [2, 9]
8.0: herbicidal effect rating, MOOVA [3, 9]
7.0: herbicidal effect rating, ECHORC [2, 6] | herbicidal effect rating, ECHORC [2, 7] | herbicidal effect rating, ECHORC [2, 8] | herbicidal effect rating, MOOVA [3, 8]
0.0: herbicidal effect rating, CYPIR [1, 6] | herbicidal effect rating, SAGPY [4, 6] | herbicidal effect rating, SAGPY [4, 7] | herbicidal effect rating, SAGPY [4, 8] | herbicidal effect rating, SAGPY [4, 9] | herbicidal effect rating, CYPSE [5, 6] | herbicidal effect rating, CYPSE [5, 7] | herbicidal effect rating, CYPSE [5, 8] | herbicidal effect rating, CYPSE [5, 9]

CC/C=C/CCCCCCCCCCOC(=O)COc1ccc(C)cc1-c1nsc2ccc(-n3c(=O)cc(C(F)(F)F)n(C)c3=O)cc12 [Example 526, Acetic acid, {{2-{5-[3,6-dihydro-3-methyl-2,6-dioxo-4-(trifluoromethyl)-1(2H)-pyrimidinyl]-1,2-benzisothiazol-3-yl}-p-tolyl}oxy}-, 11-tetradecenyl ester, (E)-]
2.0: herbicidal effect rating, CYPIR [1, 12] | herbicidal effect rating, ECHORC [2, 12] | herbicidal effect rating, ECHORC [2, 13]
8.0: herbicidal effect rating, MOOVA [3, 12]
7.0: herbicidal effect rating, CYPIR [1, 14]
9.0: herbicidal effect rating, CYPIR [1, 15] | herbicidal effect rating, MOOVA [3, 13] | herbicidal effect rating, MOOVA [3, 14] | herbicidal effect rating, MOOVA [3, 15]
4.0: herbicidal effect rating, CYPIR [1, 13] | herbicidal effect rating, ECHORC [2, 14]
0.0: herbicidal effect rating, SAGPY [4, 12] | herbicidal effect rating, SAGPY [4, 13] | herbicidal effect rating, SAGPY [4, 14] | herbicidal effect rating, SAGPY [4, 15] | herbicidal effect rating, CYPSE [5, 12] | herbicidal effect rating, CYPSE [5, 13] | herbicidal effect rating, CYPSE [5, 14] | herbicidal effect rating, CYPSE [5, 15]
6.0: herbicidal effect rating, ECHORC [2, 15]
